# From paper PMC6272715, “Discovery of Novel Small Molecule Anti-HCV Agents via the CypA Inhibitory Mechanism Using O-Acylation-Directed Lead Optimization” (Molecules, 2015)
# Read-outs that look alike come from different tables or passages of the source.
# Assays:
# [1] = target: CypA (Homo sapiens, UniProt P62937); assay: CypA enzyme inhibition assay (chymotrypsin-coupled PPIase assay); format: biochemical; conditions: mean ± SD of five independent experiments
# Experimental: The PPIase activity of CypA was conducted in a coupled assay with chymotrypsin using the synthetic tetrapeptide N-succinyl-Ala-Ala-Pro-Phe-p-nitroanilide (Sigma, Shanghai, China) as described in [34] with small modifications. The assay buffer (20 mM Tris-HCl, 50 mM NaCl, pH 7.8) and CypA were precooled at 4 °C and mixed with 0.4 mg∙mL^−1 chymotrypsin (20 mg∙mL^−1 in 1 mM HCl). The reaction was initiated by adding peptide substrate (2 mg∙mL^−1 in 500 mM LiCl in tetrahydrofuran (THF)). […] Absorbance readings were collected every 0.1 s and the temperature was controlled at 4 °C during the assay. The progress curves were analyzed by nonlinear least-squares fit. The inhibition assays of compounds were performed in the same manner as above-mentioned. […] of test compounds in DMSO, at various concentrations, was added to the CypA solution in the assay buffer. After being preincubated for 1 h at 4 °C, the assay was started by the addition of chymotrypsin and the substrate. To calculate the half-maximal inhibitory concentration (IC50), a percent of the remaining PPIase activity was plotted against the common logarithm of the compound concentration, and the data were fitted using the sigmoidal fitting model of Origin 7.0 software.
# [2] = system: JFH1-2a virus (wild type); assay: HCV virus assay, JFH1-2a wild type, Huh 7.5.1 cells; conditions: Hepatitis C virus
# [3] = Cell proliferation (cytotoxicity) assay, WST-1; format: cell-based; conditions: human
# Experimental: Cell Proliferation Assay: Huh 7.5.1 cells were seeded at a density of 2 × 10^4 cells per well in 96-well plates overnight. The cells were respectively incubated with serial diluted compounds for 48 h, and the viability of Huh7.5.1 cells was determined in 96-well tissue culture plates using cell proliferation reagent WST-1 (Roche, Basel, Switzerland). The absorbance (OD450 /reference OD630) was measured to detect the cytotoxicity of compounds, according to the manufacturer’s protocol of Cell Proliferation Reagent WST-1.
# [4] = system: HCV Con1-1b replicon; assay: HCV Con1-1b subgenomic replicon assay; format: cell-based; conditions: Hepatitis C virus; Table 4; read-out: Anti-HCV Activity EC50 ± SD Replicon Assay Con1-1b
# [5] = system: HCV JFH1-2a replicon; assay: HCV JFH1-2a subgenomic replicon assay (Renilla luciferase, Huh 7.5.1 replicon cells); format: cell-based; conditions: Hepatitis C virus
# [6] = system: HCV H77-1a replicon; assay: HCV H77-1a subgenomic replicon assay; format: cell-based; conditions: Hepatitis C virus; Table 4; read-out: Anti-HCV Activity EC50 ± SD Replicon Assay H77-1a
# [7] = system: HCV subgenomic replicon; conditions: cited from earlier work
# [8] = system: JFH1-2a (S282T) virus; assay: HCV virus assay, mutant JFH1-2a (S282T) virus strain; format: cell-based; conditions: Hepatitis C virus, read-out: Anti-HCV Activity (Virus Assay) EC50 ± SD JFH1-2a (S282T)
# [9] = system: T spleen cells; assay: Spleen cells proliferation inhibition assay (MTT), T spleen cells; format: cell-based, mouse (ICR); conditions: mouse spleen cells, 72 h, read-out: T Spleen Cells IC50 ± SD
# Experimental: Preparation of Splenocyte Suspension: The spleen was aseptically taken from female ICR mice strains (6–8 weeks-old, 20 ± 2 g), crushed gently and separated into single cells by squeezing in 20 mL RPMI 1640 medium (Invitrogen, shanghai, China). The cells obtained were passed through […] nylon cell strainer and centrifuged at 1000 rpm∙min^−1 for 5 min at RT. Pellets were added into 10 mL erythrocytes lysis buffer (150 mM NH4Cl, 10 mM KHCO3 and 0.1 mM EDTA) followed by centrifugation to remove erythrocytes. After washing twice with complete medium (RPMI 1640 containing 100 U∙mL^−1 of penicillin, 100 U∙mL^−1 of streptomycin and 10% FBS), they were re-suspended in the complete medium and used for cell culture.
# After 72 h of incubation, the cell growth was evaluated with MTT assay. The assay plates were added 10 μL of 5 mg∙mL^−1 MTT per well and incubated for 4 h. The formazan generated was solubilized with 100 μL of solution (10% SDS, 5% isobutyl alcohol, and 10 mM HCl) after incubated at 37 °C overnight. The absorption at 580 nm relative to 680 nm was measured by SpectraMax Plus 384 Reader (Molecular Devices, Shanghai, China).
# [10] = rats, intravenous injection of 25 (2 mg∙kg^−1)
# [11] = system: B spleen cells; assay: Spleen cells proliferation inhibition assay (MTT), B spleen cells; format: cell-based, mouse (ICR); conditions: mouse spleen cells, 72 h, read-out: B Spleen Cells IC50 ± SD
# Experimental: Preparation of Splenocyte Suspension: The spleen was aseptically taken from female ICR mice strains (6–8 weeks-old, 20 ± 2 g), crushed gently and separated into single cells by squeezing in 20 mL RPMI 1640 medium (Invitrogen, shanghai, China). The cells obtained were passed through 70 μM nylon cell strainer and centrifuged at 1000 rpm∙min^−1 for 5 min at RT. Pellets were added into 10 mL erythrocytes lysis buffer (150 mM NH4Cl, 10 mM KHCO3 and 0.1 mM EDTA) followed by centrifugation to remove erythrocytes. After washing twice with complete medium (RPMI 1640 containing 100 U∙mL^−1 of penicillin, 100 U∙mL^−1 of streptomycin and 10% FBS), they were re-suspended in the complete medium and used for cell culture.
# [12] = in vivo; conditions: male, SD, rat, iv, i.v. 2 mg 25/kg; for AUC(0-inf): AUC0-∞
# [13] = Huh-7.5.1, read-out: Anti-HCV Activity EC50 ± SD Virus Assay JFH1-2a
# [14] = Table 4, read-out: Anti-HCV Activity EC50 ± SD Replicon Assay JFH1-2a
# [15] = Table 1, mean ± SD of three independent experiments, read-out: Anti-HCV JFH1-2a Replicon Assay EC50 ± SD
# [16] = Huh-7.5.1, read-out: Anti-HCV Activity (Virus Assay) EC50 ± SD JFH1-2a (Wild Type)
# [17] = SD rats, Mean ± SD (Rat 1 and 3)
# CypA, sequence (P62937 whole entry): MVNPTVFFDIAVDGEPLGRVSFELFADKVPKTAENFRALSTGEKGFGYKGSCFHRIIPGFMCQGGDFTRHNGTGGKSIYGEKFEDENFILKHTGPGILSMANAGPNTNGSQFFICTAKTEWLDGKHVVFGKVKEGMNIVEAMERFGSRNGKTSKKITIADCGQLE
SMILES,melting point,"EC50 [2, 13]","CC50 at 48 h ([3]; Huh 7.5.1 cells, Table 4, 48 h)",EC50 [4],"EC50 [5, 14]",EC50 [6],other results
"O=C(NC(=O)c1c(O)cccc1OC(=O)c1ccccc1)NC1c2ccccc2-c2ccccc21 [Compound 18, 1-(2-Benzoyloxy-6-hydroxybenzoyl)-3-(9H-fluoren-9-yl)-urea]",211 to 214 °C,0.7 ± 0.23 µM,> 16 µM,1.03 ± 0.02 µM,1.05 ± 0.01 µM,0.6 ± 0.35 µM,IC50 [1]: 1.99 ± 0.47 µM
"CC(=O)Oc1cccc(O)c1C(=O)NC(=O)NC1c2ccccc2-c2ccccc21 [Compound 14, 1-(2-Acetoxy-6-hydroxybenzoyl)-3-(9H-fluoren-9-yl)-urea]",–,0.71 ± 0.34 µM,> 16 µM,0.8 ± 0.23 µM,0.55 ± 0.03 µM,0.77 ± 0.37 µM,"IC50 [1]: 2.43 ± 0.5 µM; EC50 [5, 15]: 0.55 ± 0.03 µM"
C/C=C/C[C@@H](C)[C@@H](O)[C@H]1C(=O)N[C@@H](CC)C(=O)N(C)[C@H](C)C(=O)N(CC)[C@@H](C(C)C)C(=O)N[C@@H](C(C)C)C(=O)N(C)[C@@H](CC(C)C)C(=O)N[C@@H](C)C(=O)N[C@H](C)C(=O)N(C)[C@@H](CC(C)C)C(=O)N(C)[C@@H](CC(C)C)C(=O)N(C)[C@@H](C(C)C)C(=O)N1C [alisporivir],–,–,–,–,–,–,"EC50 ([7]; ref [6], read-out: EC50 (subgenomic replicon assay)): 0.045 µM"
"CC(C)(C)C(=O)Oc1cccc(OC(=O)C(C)(C)C)c1C(=O)NC(=O)NC1c2ccccc2-c2ccccc21 [Compound 31, 1-[2,6-Bis-(trimethylacetoxyloxy)benzoyl]-3-(9H-fluoren-9-yl)-urea]",202 to 205 °C,0.84 ± 0.21 µM,> 16 µM,0.56 ± 0.2 µM,0.75 ± 0.29 µM,0.87 ± 0.27 µM,–
"O=C(NC(=O)c1c(O)cccc1OC(=O)C1CC1)NC1c2ccccc2-c2ccccc21 [Compound 21, 1-(2-Cyclopropyl formyloxy-6-hydroxybenzoyl)-3-(9H-fluoren-9-yl)-urea]",194 to 199 °C,0.78 ± 0.35 µM,> 16 µM,0.85 ± 0.24 µM,0.43 ± 0.08 µM,0.57 ± 0.2 µM,–
C/C=C/C[C@@H](C)[C@@H](O)[C@H]1C(=O)N[C@@H](CC)C(=O)N(C)[C@H](SCCN(C)C)C(=O)N(C)[C@@H](CC(C)(C)O)C(=O)N[C@@H](C(C)C)C(=O)N(C)[C@@H](CC(C)C)C(=O)N[C@@H](C)C(=O)N[C@H](C)C(=O)N(C)[C@@H](CC(C)C)C(=O)N(C)[C@@H](CC(C)C)C(=O)N(C)[C@@H](C(C)C)C(=O)N1C [SCY-635],–,–,–,–,–,–,"EC50 ([7]; ref [27], read-out: EC50 (subgenomic replicon assay, con1-derived)): 0.1 µM"
"O=C(NC(=O)c1c(OC(=O)c2ccccc2)cccc1OC(=O)c1ccccc1)NC1c2ccccc2-c2ccccc21 [Compound 26, 1-[2,6-Bis-(benzoyloxy)benzoyl]-3-(9H-fluoren-9-yl)-urea]",211 to 213 °C,1.09 ± 0.03 µM,> 16 µM,0.39 ± 0.05 µM,0.36 ± 0.03 µM,0.53 ± 0.21 µM,–
"CCCCC(=O)Oc1cccc(OC(=O)CCCC)c1C(=O)NC(=O)NC1c2ccccc2-c2ccccc21 [Compound 30, 1-[2,6-Bis-(valeryloxy)benzoyl]-3-(9H-fluoren-9-yl)-urea]",172 to 174 °C,0.47 ± 0.01 µM,> 16 µM,0.83 ± 0.26 µM,0.62 ± 0.05 µM,0.73 ± 0.11 µM,–
"CCCCC(=O)Oc1cccc(O)c1C(=O)NC(=O)NC1c2ccccc2-c2ccccc21 [Compound 22, 1-(2-Hydroxy-6-valeryloxybenzoyl)-3-(9H-fluoren-9-yl)-urea]",193 to 199 °C,0.44 ± 0.03 µM,> 16 µM,0.44 ± 0.1 µM,0.47 ± 0.02 µM,1 ± 0.06 µM,–
"CCC(=O)Oc1cccc(O)c1C(=O)NC(=O)NC1c2ccccc2-c2ccccc21 [Compound 19, 1-(2-Hydroxy-6-propionyloxybenzoyl)-3-(9H-fluoren-9-yl)-urea]",206 to 216 °C,0.47 ± 0.04 µM,> 16 µM,0.72 ± 0.2 µM,0.94 ± 0.07 µM,0.38 ± 0.22 µM,–
"CC(C)OC(=O)[C@H](C)N[P@](=O)(OC[C@H]1O[C@@H](n2ccc(=O)[nH]c2=O)[C@](C)(F)[C@@H]1O)Oc1ccccc1 [Sofosbuvir, reference compound]",–,–,–,–,–,–,"EC50 [8]: 1.14 ± 0.21 µM; EC50 [2, 16]: 0.22 ± 0.07 µM; CC50 at 48 h ([3]; Table 5): > 20 µM"
"CCCC(=O)Oc1cccc(OC(=O)CCC)c1C(=O)NC(=O)NC1c2ccccc2-c2ccccc21 [Compound 28, 1-[2,6-Bis-(n-butyryloxy)benzoyl]-3-(9H-fluoren-9-yl)-urea]",186 to 188 °C,0.68 ± 0.47 µM,> 16 µM,0.62 ± 0.15 µM,0.84 ± 0.32 µM,0.79 ± 0.2 µM,–
O=C(NC(=O)c1c(O)cccc1O)NC1c2ccccc2-c2ccccc21 [Compound 1],–,0.67 ± 0.23 µM,> 16 µM,0.78 ± 0.19 µM,0.92 ± 0.12 µM,1.11 ± 0.33 µM,"IC50 [9]: 33 ± 5.72 µM; plasma concentration after 5 min (mean ± SD) [10]: 0.9045 ± 0.2919 µg/mL; IC50 [11]: 51.9 ± 8.68 µM; EC50 [8]: 0.56 ± 0.13 µM; EC50 [2, 16]: 0.52 ± 0.16 µM; AUC(0-inf) ([12]; SD rat, Rat 1): 0.335 µg·h/mL; AUC(0-inf) ([12]; SD rat, Rat 3): 0.324 µg·h/mL; AUC(0-inf) [12, 17]: 0.329 ± 0.00808 µg·h/mL; Cmax ([12]; SD rat, Rat 1): 0.698 µg/mL; Cmax ([12]; SD rat, Rat 3): 1.11 µg/mL; Cmax [12, 17]: 0.904 ± 0.292 µg/mL; MRT ([12]; SD rat, Rat 1): 0.94 h; MRT ([12]; SD rat, Rat 3): 0.55 h; MRT [12, 17]: 0.75 ± 0.28 h; half-life ([12]; t1/2, SD rat, Rat 1): 1.84 h; half-life ([12]; t1/2, SD rat, Rat 3): 1.21 h; half-life ([12]; t1/2, SD rats, Mean ± SD (Rat 1 and 3)): 1.53 ± 0.45 h; CC50 at 48 h ([3]; Huh 7.5.1 cells, Table 5): > 20 µM; EC50 [5, 15]: 0.92 ± 0.12 µM"
"CCCCCCCC(=O)Oc1cccc(OC(=O)CCCCCCC)c1C(=O)NC(=O)NC1c2ccccc2-c2ccccc21 [Compound 33, 1-[2,6-Bis-(n-Octanoyloxy)benzoyl]-3-(9H-fluoren-9-yl)-urea]",152 to 153 °C,0.95 ± 0.02 µM,> 16 µM,0.73 ± 0.2 µM,0.98 ± 0.01 µM,0.54 ± 0.15 µM,–
